Where “and” joins values, the source holds several entries; their conditions need not be identical. Equal entries are not always repeated.
Conditions: for mass density: Liquid, isochoric method; for surface tension liquid-gas: Ring tensiometer

CCCCCCCCCCCCCC[P+](CCCCCC)(CCCCCC)CCCCCC.O=S(=O)([N-]S(=O)(=O)C(F)(F)F)C(F)(F)F
Conditions	mass density [kg/m3]
219.01 K, 845.2 kPa	1126.5
225.43 K, 10086 kPa	1125.99
225.43 K, 30200 kPa	1132.83
232.16 K, 19479 kPa	1125.46
233.47 K, 2869.4 kPa	1117.39
239.5 K, 10003 kPa	1116.86
239.51 K, 29986 kPa	1124.87
246.7 K, 20172 kPa	1116.37
247.35 K, 40212 kPa	1124.27
247.71 K, 1577.7 kPa	1107.13
254.34 K, 29850 kPa	1115.68
254.34 K, 29998 kPa	1115.78
254.36 K, 9848.1 kPa	1106.63
255.79 K, 51007 kPa	1123.62
262.3 K, 20026 kPa	1106.02
262.46 K, 40028 kPa	1115.06
263.55 K, 901 kPa	1095.02
268.29 K, 100 kPa	1090.79
270.61 K, 30010 kPa	1105.4
270.69 K, 9770.1 kPa	1094.49
270.95 K, 49862 kPa	1114.43
273.26 K, 100 kPa	1087.18
278.4 K, 100 kPa	1083.71
279.46 K, 39911 kPa	1104.75
280.16 K, 20417 kPa	1093.79
281.02 K, 1048.9 kPa	1082.63
283.3 K, 100 kPa	1079.84
288.55 K, 100 kPa	1076.14
288.56 K, 49907 kPa	1104.08
288.91 K, 10149 kPa	1082.04
288.92 K, 30030 kPa	1093.15
292.93 K, 100 kPa	1072.95
298 K, 39766 kPa	1092.49
298.17 K, 191.9 kPa	1068.8
298.17 K, 19640 kPa	1081.39
298.19 K, 100 kPa	1068.54
299.08 K, 1497.9 kPa	1069.18
303.24 K, 100 kPa	1065.2
307.5 K, 49581 kPa	1091.81
307.85 K, 10007 kPa	1068.57
308.01 K, 100 kPa	1061.72
308.08 K, 30024 kPa	1080.67
309.27 K, 1043.1 kPa	1061.06
313.17 K, 100 kPa	1057.68
318.03 K, 39710 kPa	1079.97
318.05 K, 100 kPa	1054.69
318.08 K, 19797 kPa	1067.86
318.16 K, 9063.9 kPa	1060.46
318.96 K, 1508.5 kPa	1054.33
323.08 K, 100 kPa	1051.01
328.31 K, 100 kPa	1047.34
328.73 K, 10024 kPa	1053.67
328.99 K, 49945 kPa	1079.21
329.13 K, 30007 kPa	1067.09
329.82 K, 733.9 kPa	1046.15
329.83 K, 19983 kPa	1059.65
333.03 K, 100 kPa	1044.1
338.51 K, 100 kPa	1040.38
339.97 K, 40003 kPa	1066.34
340.03 K, 20057 kPa	1052.9
340.84 K, 1346 kPa	1038.9
340.84 K, 10036 kPa	1045.42
341.21 K, 30097 kPa	1058.87
342.84 K, 100 kPa	1037.08
348.34 K, 100 kPa	1033.83
350.84 K, 50030 kPa	1065.58
353.13 K, 100 kPa	1030.2
353.15 K, 20345 kPa	1044.59
353.15 K, 31348 kPa	1052.01
353.15 K, 40207 kPa	1058.06
353.16 K, 11244 kPa	1038.09
358.18 K, 100 kPa	1026.93
364.28 K, 100 kPa	1022.11

Conditions	surface tension liquid-gas
273.49 K	31.49 mN/m
273.52 K	31.51 mN/m
278.33 K	31.18 mN/m
278.52 K	31.21 mN/m
283.37 K	30.85 mN/m
283.39 K	30.94 mN/m
288.38 K	30.66 mN/m
288.5 K	30.56 mN/m
293.37 K	30.35 mN/m
298.24 K	30.13 mN/m
298.25 K	30.11 mN/m
303.15 K	29.82 mN/m
303.17 K	29.89 mN/m
308.18 K	29.56 mN/m
308.21 K	29.37 mN/m
313.21 K	29.15 mN/m
313.22 K	29.24 mN/m
318.2 K	29.03 mN/m
318.23 K	28.86 mN/m
323.19 K	28.56 mN/m
323.28 K	28.54 mN/m
328.11 K	28.34 mN/m
328.28 K	27.99 mN/m
333.15 K	27.89 mN/m and 27.98 mN/m
338.1 K	27.59 mN/m
338.13 K	27.94 mN/m
343 K	27.46 mN/m
343.05 K	27.3 mN/m
348 K	27.14 mN/m
348.34 K	26.92 mN/m
353.32 K	26.56 mN/m
353.33 K	26.79 mN/m
358.1 K	26.38 mN/m
358.49 K	26.45 mN/m
364.76 K	26.01 mN/m
364.97 K	25.93 mN/m
